This is an account of results in the NIST ThermoML archive (doi:10.1021/je700026d).

Each structure is given as a SMILES string. ± gives the expanded uncertainty stated by the source.

Experiment in one data set: not given
To be noted: 298.15 K; 100 kPa; Liquid; Linear variable-path acoustic interferometer.
As usually defined, the speed of sound is how fast a sound wave travels through the sample. On to `CC(=O)c1ccccc1` [acetophenone], for which the speed of sound worked out at 1296.4 ± 1.8 m/s.

With `COCCOC` [1,2-dimethoxyethane], the speed of sound is 1146.2 ± 1.7 m/s.

For `NC=O` [formamide], the speed of sound was determined as 1591.3 ± 3.4 m/s.

On to `C[S+](C)[O-]` [dimethyl sulfoxide], for which the speed of sound is on record as 1493 ± 3.4 m/s.

Turning to `COCCO` [2-methoxyethan-1-ol], the speed of sound is 1339.4 ± 1.8 m/s.

On to `CC#N` [acetonitrile], for which the speed of sound is given as 1260.2 ± 5.2 m/s.

Still in this data set, the particulars now being: 298.15 K; 101.3 kPa; Liquid; Capillary tube (Ostwald / Ubbelohde) method.
Usually viscosity stands for the internal friction of a fluid under shear. In the case of `CC(=O)c1ccccc1` [acetophenone], the viscosity was 1.653 ± 0.014 mPa·s.

Turning to `COCCOC` [1,2-dimethoxyethane], the viscosity amounted to 0.409 ± 0.007 mPa·s.

Consider `NC=O` [formamide], for which the viscosity came to 3.302 ± 0.055 mPa·s.

On to `C[S+](C)[O-]` [dimethyl sulfoxide], for which the viscosity was 2.042 ± 0.034 mPa·s.

Take `COCCO` [2-methoxyethan-1-ol]: the viscosity was 1.543 ± 0.014 mPa·s.

Regarding `CC#N` [acetonitrile], the viscosity came out at 0.344 ± 0.007 mPa·s.

The same data set, now with this note: 298.15 K; 101.3 kPa; Liquid; Pycnometric method.
By mass density is commonly meant the mass of a sample divided by its volume. Turning to `CC(=O)c1ccccc1` [acetophenone], the mass density worked out at 1023.1 ± 0.7 kg/m3.

For `COCCOC` [1,2-dimethoxyethane], the mass density is 861.5 ± 1 kg/m3.

In the case of `NC=O` [formamide], the mass density is 1129.2 ± 2.6 kg/m3.

As to `C[S+](C)[O-]` [dimethyl sulfoxide], the mass density came out at 1095.4 ± 2.5 kg/m3.

For the molecule `COCCO` [2-methoxyethan-1-ol], the mass density came to 959.7 ± 0.7 kg/m3.

Take `CC#N` [acetonitrile]: the mass density was determined as 776 ± 0.7 kg/m3.

The same data set, now with this note: 308.15 K; 101.3 kPa; Liquid; Capillary tube (Ostwald / Ubbelohde) method.
As for `CC(=O)c1ccccc1` [acetophenone], the viscosity was 1.412 ± 0.013 mPa·s.

Regarding `COCCOC` [1,2-dimethoxyethane], the viscosity is 0.366 ± 0.007 mPa·s.

`NC=O` [formamide]: the viscosity was 2.542 ± 0.043 mPa·s.

As for `C[S+](C)[O-]` [dimethyl sulfoxide], the viscosity is listed as 1.568 ± 0.026 mPa·s.

Regarding `COCCO` [2-methoxyethan-1-ol], the viscosity was determined as 1.257 ± 0.012 mPa·s.

As to `CC#N` [acetonitrile], the viscosity worked out at 0.313 ± 0.007 mPa·s.

Staying with this data set, now noted: 308.15 K; 101.3 kPa; Liquid; Pycnometric method.
For the molecule `CC(=O)c1ccccc1` [acetophenone], the mass density amounted to 1014.8 ± 0.7 kg/m3.

In the case of `COCCOC` [1,2-dimethoxyethane], the mass density is recorded as 850.7 ± 1 kg/m3.

In the case of `NC=O` [formamide], the mass density amounted to 1120.5 ± 2.6 kg/m3.

As for `C[S+](C)[O-]` [dimethyl sulfoxide], the mass density stood at 1085.9 ± 2.5 kg/m3.

As for `COCCO` [2-methoxyethan-1-ol], the mass density came to 951.5 ± 0.7 kg/m3.

As for `CC#N` [acetonitrile], the mass density turned out to be 766.3 ± 0.7 kg/m3.

Staying with this data set, now noted: 318.15 K; 101.3 kPa; Liquid; Capillary tube (Ostwald / Ubbelohde) method.
On to `CC(=O)c1ccccc1` [acetophenone], for which the viscosity came to 1.117 ± 0.012 mPa·s.

For the molecule `COCCOC` [1,2-dimethoxyethane], the viscosity came out at 0.33 ± 0.007 mPa·s.

As to `NC=O` [formamide], the viscosity is 2.001 ± 0.034 mPa·s.

Take `C[S+](C)[O-]` [dimethyl sulfoxide]: the viscosity amounted to 1.485 ± 0.024 mPa·s.

Regarding `COCCO` [2-methoxyethan-1-ol], the viscosity is 1.051 ± 0.011 mPa·s.

As for `CC#N` [acetonitrile], the viscosity came to 0.289 ± 0.007 mPa·s.

Staying with this data set, now noted: 318.15 K; 101.3 kPa; Liquid; Pycnometric method.
In the case of `CC(=O)c1ccccc1` [acetophenone], the mass density is reported as 1007.5 ± 0.8 kg/m3.

In the case of `COCCOC` [1,2-dimethoxyethane], the mass density is 839.6 ± 1 kg/m3.

For the molecule `NC=O` [formamide], the mass density was determined as 1111.1 ± 2.6 kg/m3.

Take `C[S+](C)[O-]` [dimethyl sulfoxide]: the mass density is listed as 1076.9 ± 2.5 kg/m3.

Turning to `COCCO` [2-methoxyethan-1-ol], the mass density worked out at 945.9 ± 0.7 kg/m3.

With `CC#N` [acetonitrile], the mass density came to 755 ± 0.7 kg/m3.

Another data set in a line: xn = mol fraction of the nth substance listed. To be noted: 298.15 K; 100 kPa; Liquid; Linear variable-path acoustic interferometer; x1 = 1.
Regarding `NC=O` [formamide] + CC(=O)c1ccccc1, the speed of sound was found to be 1591.3 ± 3.4 m/s.

As for `NC=O` [formamide] + COCCOC, the speed of sound turned out to be 1591.3 ± 3.4 m/s.

The data set is the same for the next values; noted with them: 298.15 K; 100 kPa; Liquid; Linear variable-path acoustic interferometer; x2 = 0.
Consider `CC#N` [acetonitrile] + NC=O, for which the speed of sound came out at 1260.2 ± 5.2 m/s.

For `C[S+](C)[O-]` [dimethyl sulfoxide] + NC=O, the speed of sound stood at 1493 ± 3.4 m/s.

In the case of `COCCO` [2-methoxyethan-1-ol] + NC=O, the speed of sound came out at 1339.4 ± 1.8 m/s.

Still in this data set, the particulars now being: 298.15 K; 101 kPa; Liquid; Pycnometric method; x1 = 1.
Turning to `NC=O` [formamide] + COCCOC, the mass density was determined as 1129.2 ± 2.7 kg/m3.

The same data set, now with this note: 298.15 K; 101.3 kPa; Liquid; Capillary tube (Ostwald / Ubbelohde) method; x1 = 1.
`NC=O` [formamide] + CC(=O)c1ccccc1: the viscosity is listed as 3.302 ± 0.055 mPa·s.

For the molecule `NC=O` [formamide] + COCCOC, the viscosity is on record as 3.302 ± 0.055 mPa·s.

The data set is the same for the next values; noted with them: 298.15 K; 101.3 kPa; Liquid; Capillary tube (Ostwald / Ubbelohde) method; x2 = 0.
For the molecule `CC#N` [acetonitrile] + NC=O, the viscosity worked out at 0.344 ± 0.007 mPa·s.

Regarding `C[S+](C)[O-]` [dimethyl sulfoxide] + NC=O, the viscosity worked out at 2.042 ± 0.034 mPa·s.

Regarding `COCCO` [2-methoxyethan-1-ol] + NC=O, the viscosity was 1.543 ± 0.014 mPa·s.

The same data set, now with this note: 298.15 K; 101.3 kPa; Liquid; Pycnometric method; x1 = 1.
On to `NC=O` [formamide] + CC(=O)c1ccccc1, for which the mass density is 1129.2 ± 2.6 kg/m3.

Still in this data set, the particulars now being: 298.15 K; 101.3 kPa; Liquid; Pycnometric method; x2 = 0.
Regarding `CC#N` [acetonitrile] + NC=O, the mass density is listed as 776 ± 0.7 kg/m3.

As for `C[S+](C)[O-]` [dimethyl sulfoxide] + NC=O, the mass density came to 1095.4 ± 2.5 kg/m3.

On to `COCCO` [2-methoxyethan-1-ol] + NC=O, for which the mass density is 959.7 ± 0.7 kg/m3.

The data set is the same for the next values; noted with them: 308.15 K; 101 kPa; Liquid; Pycnometric method; x1 = 1.
Consider `NC=O` [formamide] + COCCOC, for which the mass density is on record as 1120.5 ± 2.7 kg/m3.

Staying with this data set, now noted: 308.15 K; 101.3 kPa; Liquid; Capillary tube (Ostwald / Ubbelohde) method; x1 = 1.
With `NC=O` [formamide] + CC(=O)c1ccccc1, the viscosity is 2.542 ± 0.043 mPa·s.

With `NC=O` [formamide] + COCCOC, the viscosity is on record as 2.542 ± 0.043 mPa·s.

The data set is the same for the next values; noted with them: 308.15 K; 101.3 kPa; Liquid; Capillary tube (Ostwald / Ubbelohde) method; x2 = 0.
With `CC#N` [acetonitrile] + NC=O, the viscosity was found to be 0.313 ± 0.007 mPa·s.

For the molecule `C[S+](C)[O-]` [dimethyl sulfoxide] + NC=O, the viscosity is on record as 1.568 ± 0.026 mPa·s.

On to `COCCO` [2-methoxyethan-1-ol] + NC=O, for which the viscosity worked out at 1.257 ± 0.012 mPa·s.

Staying with this data set, now noted: 308.15 K; 101.3 kPa; Liquid; Pycnometric method; x1 = 1.
For `NC=O` [formamide] + CC(=O)c1ccccc1, the mass density came to 1120.5 ± 2.6 kg/m3.

The data set is the same for the next values; noted with them: 308.15 K; 101.3 kPa; Liquid; Pycnometric method; x2 = 0.
As for `CC#N` [acetonitrile] + NC=O, the mass density amounted to 766.3 ± 0.7 kg/m3.

`C[S+](C)[O-]` [dimethyl sulfoxide] + NC=O: the mass density is reported as 1085.9 ± 2.5 kg/m3.

For `COCCO` [2-methoxyethan-1-ol] + NC=O, the mass density worked out at 951.5 ± 0.7 kg/m3.

The data set is the same for the next values; noted with them: 318.15 K; 101 kPa; Liquid; Pycnometric method; x1 = 1.
As to `NC=O` [formamide] + COCCOC, the mass density is listed as 1111.1 ± 2.7 kg/m3.

Staying with this data set, now noted: 318.15 K; 101.3 kPa; Liquid; Capillary tube (Ostwald / Ubbelohde) method; x1 = 1.
Turning to `NC=O` [formamide] + CC(=O)c1ccccc1, the viscosity is 2.001 ± 0.034 mPa·s.

As for `NC=O` [formamide] + COCCOC, the viscosity was 2.001 ± 0.034 mPa·s.

Staying with this data set, now noted: 318.15 K; 101.3 kPa; Liquid; Capillary tube (Ostwald / Ubbelohde) method; x2 = 0.
In the case of `CC#N` [acetonitrile] + NC=O, the viscosity is given as 0.289 ± 0.007 mPa·s.

Consider `C[S+](C)[O-]` [dimethyl sulfoxide] + NC=O, for which the viscosity was found to be 1.485 ± 0.024 mPa·s.

In the case of `COCCO` [2-methoxyethan-1-ol] + NC=O, the viscosity is 1.051 ± 0.011 mPa·s.

Staying with this data set, now noted: 318.15 K; 101.3 kPa; Liquid; Pycnometric method; x1 = 1.
Consider `NC=O` [formamide] + CC(=O)c1ccccc1, for which the mass density is recorded as 1111.1 ± 2.6 kg/m3.

The data set is the same for the next values; noted with them: 318.15 K; 101.3 kPa; Liquid; Pycnometric method; x2 = 0.
Regarding `CC#N` [acetonitrile] + NC=O, the mass density was determined as 755 ± 0.7 kg/m3.

As to `C[S+](C)[O-]` [dimethyl sulfoxide] + NC=O, the mass density was 1076.9 ± 2.5 kg/m3.

`COCCO` [2-methoxyethan-1-ol] + NC=O: the mass density is 945.9 ± 0.7 kg/m3.
